Experimental data as given in article PMC7277448, “Discovery of Hordenine as a Potential Inhibitor of Pyruvate Dehydrogenase Kinase 3: Implication in Lung Cancer Therapy” (Biomedicines, 2020).
“And” between values parts separate entries of the source, which are not always exact repeats. Equal values may be shown once.

What was measured:
[1] = biological target: T1, PDK3 (Homo sapiens, UniProt Q15120); experiment: Fluorescence binding (quenching, modified Stern-Volmer); settings: PDK3 4 μM, modified Stern-Volmer equation; read-out: Binding constant (K) from fluorescence studies (converted)
T1 construct: made in house
T1 sequence (Q15120 whole entry): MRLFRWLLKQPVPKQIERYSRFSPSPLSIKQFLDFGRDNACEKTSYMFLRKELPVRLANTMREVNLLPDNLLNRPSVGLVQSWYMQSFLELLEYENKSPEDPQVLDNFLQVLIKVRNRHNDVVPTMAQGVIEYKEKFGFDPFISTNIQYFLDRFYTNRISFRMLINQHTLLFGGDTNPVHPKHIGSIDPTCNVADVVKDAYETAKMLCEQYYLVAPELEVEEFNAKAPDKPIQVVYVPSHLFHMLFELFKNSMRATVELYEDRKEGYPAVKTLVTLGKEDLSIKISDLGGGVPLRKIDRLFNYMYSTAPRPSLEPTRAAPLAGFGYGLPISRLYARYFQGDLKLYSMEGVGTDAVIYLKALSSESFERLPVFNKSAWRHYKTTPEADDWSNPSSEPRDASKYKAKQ
Protocol: The binding affinity of ligands to PDK3 was analyzed by monitoring changes in the fluorescence emission intensity of protein [33]. Fluorescence measurements were carried out on the Jasco spectrofluorimeter (FP-6200, Japan). The experimental parameters were, λexc as 280 nm and λem in the range of 300–400 nm with slit width: 10 nm and medium sensitivity. All the measurements were carried out in triplicates and blank subtracted spectra were reported. The observed fluorescence values were corrected for the inner filter effect. Protein was titrated with an increasing concentration of ligands and each titration of protein. A decrease in the fluorescence intensity was mathematically evaluated using the modified Stern-Volmer equation [35] to estimate the binding parameters for hordenine-PDK3 interaction.
To measure the actual binding affinity of hordenine to PDK3, fluorescence binding studies were performed as described. […] The decrease in fluorescence intensity was mathematically analyzed using a double log relation (modified Stern−Volmer equation) to find the value of binding constant (K).

[2] = biological target: T1, PDK3; experiment: Enzyme inhibition assay (ATPase, malachite green); type: biochemical; settings: ATP 200 µM, PDK3 4 µM, 25 °C, 1 h; AAT Bioquest calculator
Protocol: Following our published protocols, an enzyme inhibition assay was carried out. Freshly prepared ATP (200 µM) was added to PDK3 (4 µM) and final reaction mixture of 100 μL was incubated at 25 °C for 1 h. Malachite green (200 μL) was further added to the reaction mixture to stop the reaction followed by incubation of samples at room temperature for 20–25 min for the development of color. From the final reaction mixture, 100 μL was transferred to a 96-well plate in triplicate to measure spectrophotometrically at 620 nm.
To further validate our fluorescence-based binding studies, an enzyme inhibition assay was carried out with increasing concentrations of hordenine to check the kinase inhibitory potential. The kinase activity was quantified and plotted as percent inhibition. The kinase activity of PDK3 alone was taken as 100% for reference. It is clear from Figure 5 that with an increasing concentration of hordenine (0–13.75 µM), there was a dose-dependent decrease in PDK3 activity.

[3] = biological target: T1, PDK3; experiment: Isothermal titration calorimetry; type: binding; settings: ITC 25 °C
Protocol: ITC measurements were carried out at 25 °C on a VP-ITC microcalorimeter from MicroCal, Inc (GE, MicroCal, Northampton, MA, USA). The purified protein was extensively dialyzed and degassed before use to avoid the bubble problem. DMSO was added in an equal amount to the protein solution (1% v/v) to prevent signal stability problems during ITC measurements. The first injection was a false one (2 μL) and then successive injections of 10 μL followed by the initial false injection. The sample cell contained PDK3 while the syringe was filled with the hordenine. Data analysis was carried out using the attached MicroCal Origin 8.0. The values (Ka, ΔH, ΔS) were calculated after curve fitting as described in our previous communications.
Thermodynamic parameters associated with the interaction of hordenine to PDK3 were measured by ITC as described. […] Various studies report different values of thermodynamic parameters obtained from fluorescence spectroscopy and ITC and this is because ITC measures a global change in the thermodynamic properties while fluorescence spectroscopy takes into account only the local changes around the fluorophore (Trp214). In the upper panel, raw data with negative heat pulses is shown which confirms exothermic binding. Binding curves found after subtraction of dilution heat of both ligands and protein are depicted in the bottom section. The obtained ITC isotherm advocates the spontaneous binding of hordenine with PDK3. The results presented were obtained from four site model fitting and thermodynamic parameters obtained for this interaction are presented in Table 1.

[4] = tested on: A549 cells; experiment: MTT cell viability assay, A549; type: cell-based; settings: Homo sapiens, 48 h, 0–200 μM, read-out: IC50, growth inhibition of A549 cells
Protocol: (§1) Cell cultures of H1299 and A549 cells were respectively maintained in RPMI-1640 and F12K cell growth medium, while HEK293 cells were maintained in DMEM (having 10% heat-inactivated FBS and 1% antibiotic-antimycotic solution) in a humidified CO2 incubator (5% CO2, 37 °C). These lung cancer cell lines were selected based on previous reports related to PDK3 [49]. Hordenine was evaluated for cell growth inhibition potential using the MTT assay as described. Briefly, the selected cells were plated in a 96-well culture plate (6000–7000 cells/well), and after 24 h cells were incubated with hordenine (0–200 μM) for 48 h. Following 48 h incubation of cells with hordenine, 25 µL MTT (from 5 mg/mL stock) was added and incubated for 4–5 h at 37 °C in a CO2 incubator. The resultant formazan was dissolved in 100 µL of DMSO and the absorbance was measured at 570 nm using a multiplate ELISA reader (BioRad). The percentage of cell viabilities was estimated using absorbance data and plotted as a function of hordenine concentration. Respective DMSO treatment was taken as vehicle control and subtracted from corresponding hordenine treatment groups, whereas for anticancer studies paclitaxel has been taken as a positive control.

[5] = tested on: H1299 cells; experiment: MTT cell viability assay, H1299; type: cell-based; settings: Homo sapiens, NCI-H1299, 48 h, 0–200 μM, read-out: IC50, growth inhibition of H1299 cells
Protocol: as §1

[6] = tested on: HEK293 cells; experiment: MTT cytotoxicity assay, HEK293; type: cell-based, human; settings: 48 h, concentration range 0–200 μM
Protocol: as §1

CN(C)CCc1ccc(O)cc1 [hordenine, Hordenine]
Kd [1]: 1 µM and 2 µM
IC50 [2]: 5.4 µM
Kd ([3]; 500 µM hordenine into 15 µM PDK3, four site model, site 1, read-out: Ka1 (Association Constant)): 51.3 µM
∆H1 (Enthalpy Change) ([3]; four site model, site 1): ∆H1 = 4151 ± 1.2 × 10^3 cal/mol
∆S1 ([3]; four site model, site 1): ∆S1 = 33.5 cal/mol/deg
∆H2 (Enthalpy Change) ([3]; four site model, site 2): ∆H2 = −5.11 × 10^4 ± 4.18 × 10^3 cal/mol
∆S2 ([3]; four site model, site 2): ∆S2 = −149 cal/mol/deg
Kd ([3]; four site model, site 2, read-out: Ka2 (Association Constant)): 10.8 µM
∆H3 (Enthalpy Change) ([3]; four site model, site 3): ∆H3 = 3.75 × 10^4 ± 5.20 × 10^3 cal/mol
∆S3 ([3]; four site model, site 3): ∆S3 = 147 cal/mol/deg
Kd ([3]; four site model, site 3, read-out: Ka3 (Association Constant)): 19.6 µM
∆H4 (Enthalpy Change) ([3]; four site model, site 4): ∆H4 = −2.33 × 10^5 ± 1.03 × 10^4 cal/mol
∆S4 ([3]; four site model, site 4): ∆S4 = −767 cal/mol/deg
Kd ([3]; four site model, site 4 (printed Ka3), read-out: Ka3 (Association Constant), fourth line of the table): 400 µM
IC50 [4]: 15 ± 2.13 µM
IC50 [5]: 21.3 ± 1.99 µM
Growth inhibition / cytotoxicity on HEK293 cells [6]: did not inhibit the growth of HEK293 cells
